Experimental data as given in patent US8461170B2, “Chemical compounds” (Astrazeneca AB, priority 2010, dated 2013).
Like-named read-outs stand apart in the source and are kept apart here.

Target: T1, human ALK (Homo sapiens, UniProt Q9UM73)
T1 construct: GST (N); purchased Invitrogen, Carlsbad, Calif; (or prepared by AstraZeneca); host or cells: insect cells
Test: ALK kinase mobility shift assay (Caliper LC3000)
Type: biochemical
Conditions: ATP 30 μM (Km) or 5 mM, not specified which
Method: ALK kinase activity was determined by measuring the kinase's ability to phosphorylate a tyrosine residue within a peptide substrate using a mobility shift assay on a Caliper LC3000 reader (Caliper Life Sciences, Hopkinton, Mass.), which measures fluorescence of the phosphorylated and unphosphorylated substrate and calculates a ratiometric value to determine percent turnover.
To measure ALK kinase activity, the ALK enzyme used was N-terminal GST-tagged, recombinant, human ALK, amino acids 1058-1620 (Genbank Accession number NP_004295) expressed in insect cells and activated in-vitro via autophosphorylation. This was either purchased from a commercially available source (Invitrogen, Carlsbad, Calif.) or prepared by AstraZeneca. The kinase was incubated with a FAM labeled SRCtide substrate (5FAM-GEEPLYWSFPAKKK-NH2, AnaSpec, Fremont, Calif.), 30 μM adenosine triphosphate (ATP, at Km concentration) or 5 mM ATP, 50 mM HEPES buffer (pH 7.3), 1 mM DTT, 0.01% Tween 20, 50 μg/ml BSA and 10 mM MgCl2 for 90 minutes at room temperature. After this time, the kinase reaction was stopped by adding quenching buffer containing final concentrations of 36 mM ethylenediaminetetraacetic acid (EDTA), 65 mM HEPES buffer (pH 7.3), 0.2% Coatin Reagent 3 (Caliper Life Sciences, Hopkinton, Mass.), and 0.003% Tween 20. The reaction was performed in 384 well microtitre plates and the reaction products were detected using the Caliper LC3000 Reader in the presence of separation buffer consisting of 100 mM HEPES (pH 7.3), 15.8 mM EDTA, 0.1% Coatin Reagent 3 (Caliper, Mass.), 0.015% Brij-35, 5% DMSO, and 5.6 mM MgCl2. The separation conditions set up on the Caliper LC3000 were −1.7 PSI, −400V upstream voltage, −2000V downstream voltage, 0.2 second sample sip, 45 second post sip, and 150 seconds final delay. The percentage of inhibition of ALK enzyme activity by compounds were measured based on Max signals (DMSO control) and Min signals (EDTA control) in the plates. Data was graphed and IC50s calculated by IDBS ActivityBase program.

[1] = geometric means of multiple test runs, as presented in the priority filings, read-out: ALK Enzyme IC50 (μM)*
[2] = cumulative geometric means including test re-runs, some obtained since the priority filings, read-out: ALK Enzyme IC50 (μM)**

T1 sequence (Q9UM73 1058-1620): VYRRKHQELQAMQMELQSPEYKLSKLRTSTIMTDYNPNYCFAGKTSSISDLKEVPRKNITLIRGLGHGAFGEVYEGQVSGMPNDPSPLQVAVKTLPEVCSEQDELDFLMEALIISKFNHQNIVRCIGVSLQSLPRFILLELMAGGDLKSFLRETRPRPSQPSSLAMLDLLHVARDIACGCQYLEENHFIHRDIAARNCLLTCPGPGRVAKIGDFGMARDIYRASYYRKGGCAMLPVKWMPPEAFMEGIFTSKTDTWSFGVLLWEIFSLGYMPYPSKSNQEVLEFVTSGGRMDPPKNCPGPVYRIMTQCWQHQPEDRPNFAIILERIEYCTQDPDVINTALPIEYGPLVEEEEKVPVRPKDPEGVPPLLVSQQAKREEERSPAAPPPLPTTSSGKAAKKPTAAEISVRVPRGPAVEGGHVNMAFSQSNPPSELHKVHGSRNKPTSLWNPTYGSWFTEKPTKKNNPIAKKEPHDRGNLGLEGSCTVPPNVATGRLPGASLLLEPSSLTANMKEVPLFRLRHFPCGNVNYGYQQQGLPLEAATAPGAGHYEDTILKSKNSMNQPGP

Structure (SMILES) | IC50 [1] [µM] | IC50 [2] [µM]
COc1cc(N2CCC(N(C)C)CC2)ccc1Nc1ncc(C)c(-c2c[nH]c3ccccc23)n1 [Example 11, N-(4-(4-(Dimethylamino)piperidin-1-yl)-2-methoxyphenyl)-4-(1H-indol-3-yl)-5-methylpyrimidin-2-amine] | 0.086 | 
COc1cc(N2CCC(N(C)C)CC2)ccc1Nc1ncc(Cl)c(-c2c[nH]c3ccccc23)n1 [Example 12, 5-Chloro-N-(4-(4-(dimethylamino)piperidin-1-yl)-2-methoxyphenyl)-4-(1H-indol-3-yl)pyrimidin-2-amine] | 0.023 | 0.021
COc1cc(N2CCC(N(C)C)CC2)ccc1Nc1ncc(F)c(-c2c[nH]c3ccccc23)n1 [Example 13, N-(4-(4-(Dimethylamino)piperidin-1-yl)-2-methoxyphenyl)-5-fluoro-4-(1H-indol-3-yl)pyrimidin-2-amine] | 0.05 | 
COc1cc(N2CCC(NCCO)CC2)ccc1Nc1ncc(Cl)c(-c2c[nH]c3ccccc23)n1 [Example 20, 2-(1-(4-(5-Chloro-4-(1H-indol-3-yl)pyrimidin-2-ylamino)-3-methoxyphenyl)piperidin-4-ylamino)ethanol] | 0.029 | 
COc1cc(N2CCC(N3CCN(S(C)(=O)=O)CC3)CC2)ccc1Nc1ncc(Cl)c(-c2c[nH]c3ccccc23)n1 [Example 21, 5-Chloro-4-(1H-indol-3-yl)-N-(2-methoxy-4-{4-[4-(methylsulfonyl)piperazin-1-yl]piperidin-1-yl}phenyl)pyrimidin-2-amine] | 0.235 | 
COc1cc(N2CCC(N3CC[C@@H](F)C3)CC2)ccc1Nc1ncc(Cl)c(-c2c[nH]c3ccccc23)n1 [Example 22, 5-Chloro-N-(4-{4-[(3R)-3-fluoropyrrolidin-1-yl]piperidin-1-yl}-2-methoxyphenyl)-4-(1H-indol-3-yl)pyrimidin-2-amine] | 0.057 | 
COc1cc(N2CCC(N3CCN(C(C)C)CC3)CC2)ccc1Nc1ncc(Cl)c(-c2c[nH]c3ccccc23)n1 [Example 23, 5-Chloro-4-(1H-indol-3-yl)-N-(4-(4-(4-isopropylpiperazin-1-yl)piperidin-1-yl)-2-methoxyphenyl)pyrimidin-2-amine] | 0.028 | 
COc1cc(N2CCC(N3C[C@@H](C)O[C@@H](C)C3)CC2)ccc1Nc1ncc(Cl)c(-c2c[nH]c3ccccc23)n1 [Example 24, 5-Chloro-N-(4-(4-((2S,6R)-2,6-dimethylmorpholino)piperidin-1-yl)-2-methoxyphenyl)-4-(1H-indol-3-yl)pyrimidin-2-amine] | 0.14 | 
COc1cc(N2CCC(NC3COC3)CC2)ccc1Nc1ncc(Cl)c(-c2c[nH]c3ccccc23)n1 [Example 26, 5-Chloro-4-(1H-indol-3-yl)-N-(2-methoxy-4-(4-(oxetan-3-ylamino)piperidin-1-yl)phenyl)pyrimidin-2-amine] | 0.113 | 
COc1cc(N2CCC(N(C)C)CC2)ccc1Nc1ncc(C(F)(F)F)c(-c2c[nH]c3ccccc23)n1 [Example 29, N-(4-(4-(dimethylamino)piperidin-1-yl)-2-methoxyphenyl)-4-(1H-indol-3-yl)-5-(trifluoromethyl)pyrimidin-2-amine] | 0.021 | 
COc1cc(N2CCC(N)C(C)(C)C2)ccc1Nc1ncc(Cl)c(-c2c[nH]c3ccccc23)n1 (centres unmarked) [Example 30, N-(4-(4-amino-3,3-dimethylpiperidin-1-yl)-2-methoxyphenyl)-5-chloro-4-(1H-indol-3-yl)pyrimidin-2-amine] | 0.182 | 0.151
CNC1CCN(c2ccc(Nc3ncc(Cl)c(-c4c[nH]c5ccccc45)n3)c(OC)c2)CC1(C)C (centres unmarked) [Example 31, 5-chloro-N-(4-(3,3-dimethyl-4-(methylamino)piperidin-1-yl)-2-methoxyphenyl)-4-(1H-indol-3-yl)pyrimidin-2-amine] | 0.088 | 0.136
COc1cc(N2CCC(N(C)C)C(C)(C)C2)ccc1Nc1ncc(Cl)c(-c2c[nH]c3ccccc23)n1 (centres unmarked) [Example 32, 5-chloro-N-(4-(4-(dimethylamino)-3,3-dimethylpiperidin-1-yl)-2-methoxyphenyl)-4-(1H-indol-3-yl)pyrimidin-2-amine] | 0.343 | 0.356
COc1cc(N2CC[C@H](N)[C@H](F)C2)ccc1Nc1ncc(Cl)c(-c2c[nH]c3ccccc23)n1 [Example 33, N-(4-((3R,4S)-4-amino-3-fluoropiperidin-1-yl)-2-methoxyphenyl)-5-chloro-4-(1H-indol-3-yl)pyrimidin-2-amine] | 0.025 | 0.03

Other lines, results leading:

IC50 [1] [µM] | IC50 [2] [µM] | Structure (SMILES)
0.061 |  | COc1cc(N2CCC(N3CCN(C)CC3)CC2)ccc1Nc1ncc(C(F)(F)F)c(-c2c[nH]c3ccccc23)n1 [Example 8, 4-(1H-Indol-3-yl)-N-(2-methoxy-4-(4-(4-methylpiperazin-1-yl)piperidin-1-yl)phenyl)-5-(trifluoromethyl)pyrimidin-2-amine]
0.024 |  | COc1cc(N2CCC(N3CCN(C)CC3)CC2)c(C)cc1Nc1ncc(Cl)c(-c2c[nH]c3ccccc23)n1 [Example 14, 5-Chloro-4-(1H-indol-3-yl)-N-(2-methoxy-5-methyl-4-(4-(4-methylpiperazin-1-yl)piperidin-1-yl)phenyl)pyrimidin-2-amine]
0.144 |  | COc1cc(N2CCC(N3CCN(C)CC3)CC2)c(C)cc1Nc1ncc(C)c(-c2c[nH]c3ccccc23)n1 [Example 15, 4-(1H-Indol-3-yl)-N-(2-methoxy-5-methyl-4-(4-(4-methylpiperazin-1-yl)piperidin-1-yl)phenyl)-5-methylpyrimidin-2-amine]
0.019 |  | COc1cc(N2CCC(N(C)C)CC2)c(C)cc1Nc1ncc(Cl)c(-c2c[nH]c3ccccc23)n1 [Example 16, 5-Chloro-N-(4-(4-(dimethylamino)piperidin-1-yl)-2-methoxy-5-methylphenyl)-4-(1H-indol-3-yl)pyrimidin-2-amine]
0.047 |  | COc1cc(N2CCC(N(C)C)CC2)c(C)cc1Nc1ncc(C)c(-c2c[nH]c3ccccc23)n1 [Example 17, N-(4-(4-(Dimethylamino)piperidin-1-yl)-2-methoxy-5-methylphenyl)-4-(1H-indol-3-yl)-5-methylpyrimidin-2-amine]
0.027 |  | COc1cc(N2CCC(N)CC2)c(C)cc1Nc1ncc(Cl)c(-c2c[nH]c3ccccc23)n1 [Example 18, N-(4-(4-Aminopiperidin-1-yl)-2-methoxy-5-methylphenyl)-5-chloro-4-(1H-indol-3-yl)pyrimidin-2-amine]
0.052 |  | COc1cc(N2CCC(N)CC2)c(C)cc1Nc1ncc(C)c(-c2c[nH]c3ccccc23)n1 [Example 19, N-(4-(4-aminopiperidin-1-yl)-2-methoxy-5-methylphenyl)-4-(1H-indol-3-yl)-5-methylpyrimidin-2-amine]
0.39 |  | COc1cc(N2CCC(N3CC[C@@H](F)C3)CC2)c(C)cc1Nc1ncc(Cl)c(-c2c[nH]c3ccccc23)n1 [Example 25, (R)-5-Chloro-N-(4-(4-(3-fluoropyrrolidin-1-yl)piperidin-1-yl)-2-methoxy-5-methylphenyl)-4-(1H-indol-3-yl)pyrimidin-2-amine]
0.033 |  | COc1cc(N2CCC(N3CCN(C)CC3)CC2)ccc1Nc1ncc(Br)c(-c2c[nH]c3ccccc23)n1 [Example 27]
0.024 |  | COc1cc(N2CCC(N3CCN(C)CC3)CC2)ccc1Nc1ncc(C#N)c(-c2c[nH]c3ccccc23)n1 [Example 28, 4-(1H-Indol-3-yl)-2-(2-methoxy-4-(4-(4-methylpiperazin-1-yl)piperidin-1-yl)phenylamino)pyrimidine-5-carbonitrile]
